According to patent US6849612B2, “Oligonucleotide modulation of cell adhesion” (ISIS Pharmaceuticals, Inc., priority 1993, dated 2005):
Strand notation (5' to 3'): a small letter for the sugar, then the base; units joined by * are phosphorothioate-linked, units joined directly phosphodiester-linked; [ ] holds rarer units or linkages, { } end groups; capitals alone tell only the bases. d = 2'-deoxy (DNA)

How the values were obtained:
ICAM-1 = assay: ELISA screening for ICAM-1 expression in interleukin-1β-stimulated cells (HUVEC and A549); type: cell-based, human; settings: interleukin-1β-stimulated cells, two cell lines (HUVEC, A549)
VCAM-1 = assay: ELISA of VCAM-1 expression in TNF-stimulated HUVEC; type: cell-based, human; settings: for VCAM-1 EXPRESSION 30 nM oligo (VCAM-1 expression is given as % of control) / VCAM-1 EXPRESSION 50 nM oligo (VCAM-1 expression is given as % of control): TNF-α 16 hours; for IC50: TNF-α, read-out: IC50 for inhibition of VCAM-1 expression (asterisk)
Experimental: Primary human umbilical vein endothelial (HUVEC) cells, passage 2 to 5, were plated in 96-well plates and allowed to reach confluence. Cells were washed three times with Opti-MEM (GIBCO, Grand Island N.Y.). Cells were treated with increasing concentrations of oligonucleotide diluted in Opti-MEM containing 10 μg/ml DOTMA solution (Bethesda Research Labs, Bethesda, Md.) for 4 hours at 370C. The medium was removed and replaced with EGM-UV (Clonetics, San Diego Calif.) plus oligonucleotide. Tumor necrosis factor α was added to the medium (2.5 ng/ml) and the cells were incubated an additional 4 hours at 37° C.
ELAM-1 expression was determined by ELISA. Cells were gently washed three times with Dulbecco's phosphate-buffered saline (D-PBS) prewarmed to 37° C. Cells were fixed with 95% ethanol at 4° C. for 20 minutes, washed three times with D-PBS and blocked with 2% BSA in D-PBS. Cells were incubated with ELAM-1 monoclonal antibody BBA-1 (R&D Systems, Minneapolis Minn.) diluted to 0.5 μg/ml in D-PBS containing 2% BSA for 1 hour at 37° C. Cells were washed three times with D-PBS and the bound ELAM-1 antibody detected with biotinylated goat anti-mouse secondary antibody followed by β-galactosidase-conjugated streptavidin as described in Example 1.
Inhibition of VCAM-1 expression by fifteen antisense phosphorothioate oligonucleotides was determined using the ELISA assay approximately as described in Example 12, except that cells were stimulated with TNF-àfor 16 hours and VCAM-1 expression was detected by a VCAM-1 specific monoclonal antibody (R & D Systems, Minneapolis, Minn.) used at 0.5 μg/ml.

Substance | inhibition of ICAM-1 expression, relative activity in words (ICAM-1) | VCAM-1 EXPRESSION 30 nM oligo (VCAM-1 expression is given as % of control) (VCAM-1) | VCAM-1 EXPRESSION 50 nM oligo (VCAM-1 expression is given as % of control) (VCAM-1) | IC50 (VCAM-1)
ISIS 1573: P=S, human ICAM-1 3′-Untranslated (2849-2866), SEQ ID NO 4, GAGGCTGAGGTGGGAGGA (antisense dG*dA*dG*dG*dC*dT*dG*dA*dG*dG*dT*dG*dG*dG*dA*dG*dG*dA) | not as active as ISIS-1939 |  |  | 
ISIS 1931: P=S, human ICAM-1 AUG Codon (55-74), SEQ ID NO 7, CATAGCGAGGCTGAGGTTGC (antisense dC*dA*dT*dA*dG*dC*dG*dA*dG*dG*dC*dT*dG*dA*dG*dG*dT*dT*dG*dC) | inhibit ICAM-1 expression |  |  | 
ISIS 1932: P=S, human ICAM-1 AUG Codon (72-91), SEQ ID NO 8, CGGGGGCTGCTGGGAGCCAT (antisense dC*dG*dG*dG*dG*dG*dC*dT*dG*dC*dT*dG*dG*dG*dA*dG*dC*dC*dA*dT) | slightly less active than ISIS 1570 and ISIS 1931 |  |  | 
ISIS 1933: P=S, human ICAM-1 Coding Region (111-130), SEQ ID NO 9 (antisense dA*dG*dA*dG*dC*dC*dC*dC*dG*dA*dG*dC*dA*dG*dG*dA*dC*dC*dA*dG) | weak activity |  |  | 
ISIS 1934: P=S, human ICAM-1 Coding Region (351-370), SEQ ID NO 10 (antisense dT*dG*dC*dC*dC*dA*dT*dC*dA*dG*dG*dG*dC*dA*dG*dT*dT*dT*dG*dA) | weak activity |  |  | 
ISIS 1935: P=S, human ICAM-1 Coding Region (889-908), SEQ ID NO 11 (antisense dG*dG*dT*dC*dA*dC*dA*dC*dT*dG*dA*dC*dT*dG*dA*dG*dG*dC*dC*dT) | weak activity |  |  | 
ISIS 1936: P=S, human ICAM-1 Coding Region (1459-1468), SEQ ID NO 12 (antisense dC*dT*dC*dG*dC*dG*dG*dG*dT*dG*dA*dC*dC*dT*dC*dC*dC*dC*dT*dT) | weak activity |  |  | 
ISIS 1937: P=S, human ICAM-1 Termination Codon (1651-1687), SEQ ID NO 13, TCAGGGAGGCGTGGCTTGTG (antisense dT*dC*dA*dG*dG*dG*dA*dG*dG*dC*dG*dT*dG*dG*dC*dT*dT*dG*dT*dG) | moderate activity |  |  | 
ISIS 1938: P=S (printed P = 5), human ICAM-1 Termination Codon (1668-1687), SEQ ID NO 14, CCTGTCCCGGGATAGGTTCA (antisense dC*dC*dT*dG*dT*dC*dC*dC*dG*dG*dG*dA*dT*dA*dG*dG*dT*dT*dC*dA) | moderate activity |  |  | 
ISIS 2307: P=S, human ICAM-1 3′-Untranslated (1976-1995), SEQ ID NO 26 (antisense dT*dG*dT*dC*dC*dT*dC*dA*dT*dG*dG*dT*dG*dG*dG*dG*dC*dT*dA*dT) | least active of the series |  |  | 
ISIS 2634: 2′-fluoro A, C & U; P=S, human ICAM-1 AUG-Codon (64-81), SEQ ID NO 1 (antisense TGGGAGCCATAGCGAGGC; DNA at G, 2'-fluoro at ACT, all phosphorothioate, T or U not given here) | less effective |  |  | 
ISIS 2637: 2′-fluoro A, C & U, human ICAM-1 3′-Untrans. (1952-1971), SEQ ID NO 15 (antisense CCCCCACCACTTCCCCTCTC; all 2'-fluoro, backbone and T or U not given here; further chemistry not fully specified) | did not exhibit this level of activity |  |  | 
ISIS 2973: 2′-O-methyl; P=S, human ICAM-1 3′-Untrans. (1952-1971), SEQ ID NO 15 (CCCCCACCACTTCCCCTCTC; listed as DNA, chemistry not fully specified) | did not exhibit this level of activity |  |  | 
ISIS 2974: 2′-O-methyl; P=S, human ICAM-1 AUG Codon (64-81), SEQ ID NO 1 (TGGGAGCCATAGCGAGGC; listed as DNA, chemistry not fully specified) | approximately threefold less effective than ISIS 1570 |  |  | 
ISIS 3800: phosphorothioate, human VCAM-1 3′-UTR 2620-2639, SEQ ID NO 70, GCAATCTTGCTATGGCATAA (DNA, all phosphorothioate, methylation of C not given here) |  | 64.4 % of control | 47.7 % of control | ≤ 50 nM
ISIS 3801: phosphorothioate, human VCAM-1 3′-UTR 2872-2892, SEQ ID NO 50, AACCCAGTGCTCCCTTTGCT (DNA, all phosphorothioate, methylation of C not given here) |  | 36.5 % of control | 21.3 % of control | ≤ 50 nM
ISIS 3805: phosphorothioate, human VCAM-1 3′-UTR 2826-2845, SEQ ID NO 71, CCCGGCATCTTTACAAAACC (DNA, all phosphorothioate, methylation of C not given here) |  | 7.7 % of control | 44.9 % of control | ≤ 50 nM
ISIS 5847: phosphorothioate, human VCAM-1 3′-UTR 2957-2976, SEQ ID NO 72, AACATCTCCGTACCATGCCA (DNA, all phosphorothioate, methylation of C not given here) |  | 51.8 % of control | 24.6 % of control | ≤ 50 nM
ISIS 5862: phosphorothioate, human VCAM-1 5′-UTR 48-68, SEQ ID NO 62, CCTGTGTGTGCCTGGGAGGG (DNA, all phosphorothioate, methylation of C not given here) |  | 115.0 % of control | 3.5 % of control | 
ISIS 5863: phosphorothioate, human VCAM-1 CODING 745-764, SEQ ID NO 64, CAGCCTGCCTTACTGTGGGC (DNA, all phosphorothioate, methylation of C not given here) |  | 95.8 % of control | 66.7 % of control | 
ISIS 5874: phosphorothioate, human VCAM-1 CODING 1032-1052, SEQ ID NO 65, CTTGAACAATTAATTCCACCT (DNA, all phosphorothioate, methylation of C not given here) |  | 66.5 % of control | 35.3 % of control | ≤ 50 nM
ISIS 5875: phosphorothioate, human VCAM-1 CODING 2183-2203, SEQ ID NO 68, GTCTTTGTTGTTTTCTCTTCC (DNA, all phosphorothioate, methylation of C not given here) |  | 59.2 % of control | 34.8 % of control | ≤ 50 nM
ISIS 5876: phosphorothioate, human VCAM-1 CODING 2038-2057, SEQ ID NO 67, CTGTGTCTCCTGTCTCCGCT (DNA, all phosphorothioate, methylation of C not given here) |  | 43.5 % of control | 26.6 % of control | ≤ 50 nM
ISIS 5884: phosphorothioate, human VCAM-1 5′-UTR 1-19, SEQ ID NO 60, CGATGCAGATACCGCGGAGT (antisense dC*dG*dA*dT*dG*dC*dA*dG*dA*dT*dA*dC*dC*dG*dC*dG*dG*dA*dG*dT) |  | 79.2 % of control | 37.2 % of control | ≤ 50 nM
ISIS 5885: phosphorothioate, human VCAM-1 E/I 1633-1649 + intron, SEQ ID NO 66, TTACCATTGACATAAAGTGTT (DNA, all phosphorothioate, methylation of C not given here) |  | 84.4 % of control | 52.4 % of control | 
